{
  "source": "patent US9932325B2",
  "about": "(Denali Therapeutics Inc., priority 2015, dated 2018)",
  "note": "pIC50: −log10 of the molar value.",
  "data": [
    {"molecular_target": "LRRK2 G2019S enzyme (Homo sapiens (Human), UniProt Q5S007, G2019S)", "sequence (Q5S007 whole entry G2019S)": "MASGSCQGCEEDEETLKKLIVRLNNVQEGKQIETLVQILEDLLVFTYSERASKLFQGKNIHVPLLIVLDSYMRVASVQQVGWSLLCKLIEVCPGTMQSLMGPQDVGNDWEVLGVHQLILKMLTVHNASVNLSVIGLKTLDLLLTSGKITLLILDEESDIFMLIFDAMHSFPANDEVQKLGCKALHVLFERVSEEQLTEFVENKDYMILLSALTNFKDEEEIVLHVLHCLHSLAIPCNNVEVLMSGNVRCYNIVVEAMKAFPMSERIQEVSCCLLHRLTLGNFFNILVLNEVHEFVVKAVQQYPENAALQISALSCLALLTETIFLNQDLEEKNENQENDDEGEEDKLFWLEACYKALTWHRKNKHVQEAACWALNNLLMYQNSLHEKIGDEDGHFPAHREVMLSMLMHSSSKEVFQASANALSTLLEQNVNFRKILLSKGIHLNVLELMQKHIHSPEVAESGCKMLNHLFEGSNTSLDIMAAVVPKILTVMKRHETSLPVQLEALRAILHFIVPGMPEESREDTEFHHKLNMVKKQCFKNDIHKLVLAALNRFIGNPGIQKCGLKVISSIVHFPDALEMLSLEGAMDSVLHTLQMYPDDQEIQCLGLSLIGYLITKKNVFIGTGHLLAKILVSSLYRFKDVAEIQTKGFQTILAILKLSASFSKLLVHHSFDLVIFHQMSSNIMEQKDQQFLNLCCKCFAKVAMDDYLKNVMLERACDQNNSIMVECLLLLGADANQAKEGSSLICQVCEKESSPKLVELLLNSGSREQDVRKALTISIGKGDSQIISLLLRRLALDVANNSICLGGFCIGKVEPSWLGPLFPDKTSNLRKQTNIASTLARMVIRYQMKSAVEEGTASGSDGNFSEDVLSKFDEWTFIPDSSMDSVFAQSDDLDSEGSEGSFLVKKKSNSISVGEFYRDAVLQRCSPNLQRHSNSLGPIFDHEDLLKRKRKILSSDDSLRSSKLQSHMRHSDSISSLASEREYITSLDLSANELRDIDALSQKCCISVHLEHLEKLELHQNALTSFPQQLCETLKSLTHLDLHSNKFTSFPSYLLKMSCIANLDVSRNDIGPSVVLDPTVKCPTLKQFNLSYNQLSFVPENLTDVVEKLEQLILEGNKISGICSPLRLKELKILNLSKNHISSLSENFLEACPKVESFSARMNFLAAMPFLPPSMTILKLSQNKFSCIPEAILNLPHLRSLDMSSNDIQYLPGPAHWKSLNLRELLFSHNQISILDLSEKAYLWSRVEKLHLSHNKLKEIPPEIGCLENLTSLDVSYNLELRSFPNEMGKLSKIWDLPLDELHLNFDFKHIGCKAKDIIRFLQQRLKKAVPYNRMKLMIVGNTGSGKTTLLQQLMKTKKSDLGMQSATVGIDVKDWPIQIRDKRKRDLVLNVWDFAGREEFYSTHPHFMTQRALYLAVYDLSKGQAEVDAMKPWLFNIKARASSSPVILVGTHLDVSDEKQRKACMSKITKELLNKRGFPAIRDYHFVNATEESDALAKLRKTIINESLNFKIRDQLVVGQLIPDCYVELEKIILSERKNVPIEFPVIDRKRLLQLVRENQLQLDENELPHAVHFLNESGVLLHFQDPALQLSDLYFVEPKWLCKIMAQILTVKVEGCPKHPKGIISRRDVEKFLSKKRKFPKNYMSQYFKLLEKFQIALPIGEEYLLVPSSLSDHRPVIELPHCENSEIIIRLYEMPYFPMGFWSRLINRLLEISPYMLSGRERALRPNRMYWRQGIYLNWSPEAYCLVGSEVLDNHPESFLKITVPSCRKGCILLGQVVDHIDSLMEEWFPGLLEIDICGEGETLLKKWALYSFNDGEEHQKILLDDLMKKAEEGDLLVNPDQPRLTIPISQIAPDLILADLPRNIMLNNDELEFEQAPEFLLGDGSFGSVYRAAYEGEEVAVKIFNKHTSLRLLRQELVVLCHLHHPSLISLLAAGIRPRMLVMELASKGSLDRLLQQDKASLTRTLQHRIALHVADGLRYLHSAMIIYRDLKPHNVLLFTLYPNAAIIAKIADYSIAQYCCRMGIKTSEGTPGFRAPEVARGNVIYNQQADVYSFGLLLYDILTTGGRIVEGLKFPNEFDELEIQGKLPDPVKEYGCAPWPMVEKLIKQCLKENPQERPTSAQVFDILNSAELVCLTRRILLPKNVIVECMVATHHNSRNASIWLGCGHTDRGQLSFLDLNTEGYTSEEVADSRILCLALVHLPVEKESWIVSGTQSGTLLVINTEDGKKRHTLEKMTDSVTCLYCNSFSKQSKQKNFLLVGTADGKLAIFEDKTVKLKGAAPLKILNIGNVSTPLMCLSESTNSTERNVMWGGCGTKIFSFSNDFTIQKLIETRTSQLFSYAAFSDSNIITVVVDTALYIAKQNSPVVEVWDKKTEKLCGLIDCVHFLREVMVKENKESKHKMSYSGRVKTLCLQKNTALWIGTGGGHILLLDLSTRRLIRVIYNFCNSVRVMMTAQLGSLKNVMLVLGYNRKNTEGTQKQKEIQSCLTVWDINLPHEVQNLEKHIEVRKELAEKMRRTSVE", "assay": "LRRK2 G2019S TR-FRET biochemical assay (LRRKtide substrate)", "conditions": "134 μM ATP", "procedure": "Detection Reaction Conditions • 1× TR-FRET dilution buffer • 10 mM EDTA • 2 nM antibody • 23° C. reaction temperature • 10 μL total reaction volume\nCompounds were prepared by initially diluting to 1 mM with DMSO. 35 μL of reference compound solution, 35 μL of test compound solution, and 35 μL HPE were successively added to the source plate (384-well assay plate, Labcyte). The plates were centrifuged at 2500 rpm for 1 minute and sealed in foil. […] The assay plate was centrifuged at 2500 rpm for 1 minute, and sealed with foil.\nTo perform the enzyme reaction, 5 μL of LRRKtide substrate and kinase mixture in assay buffer was added to all wells of the assay plate. The plate was centrifuged to concentrate the mixture at the bottom of the wells. The assay plate was incubated at 23° C. for 20 minutes. Following incubation, 5 μL of 2× ATP in assay buffer was added to each well, and plates were centrifuged to concentrate the mixture at the bottom of the wells. The plate was incubated at 23° C. for 60 minutes.\nTo perform the detection of the reaction, EDTA completely mixed in TR-FRET dilution buffer was added to antibody reagent. 10 μL of detection reagent was added to all wells of each well of the assay plate and the plate was centrifuged to concentrate the mixture at the bottom of the wells. The plate was then incubated at 23° C. for 60 minutes.", "values": [
      {"smiles": "COc1nc(Nc2cn(C3(C)CCNC3=O)nc2C)ncc1Br", "note": "(single isomer, unassigned) [Compound 64A]", "pIC50": "> 7.52"},
      {"smiles": "COc1nc(Nc2cn(C3C[C@H]3C#N)nc2C2CC2)ncc1Br", "note": "(single isomer, unassigned) [Compound 213]", "pIC50": "> 7.52"},
      {"smiles": "CCNc1nc(Nc2cc(C(C)(C)O)nn2C2CCC2)ncc1C(F)(F)F", "note": "[Compound 191]", "pIC50": "> 7.52"},
      {"smiles": "CCNc1nc(Nc2cn(C3CC3)nc2[C@H]2C[C@H](n3nccn3)C2)ncc1C(F)(F)F", "note": "[Compound 196]", "pIC50": "> 7.52"},
      {"smiles": "CCNc1nc(Nc2cc(N3CCCS3(=O)=O)nn2C2CC2)ncc1Br", "note": "[Compound 159]", "pIC50": "> 7.52"},
      {"smiles": "CNc1nc(Nc2cnn(C3C[C@@H]4[C@H](C3)C4(F)F)c2C)ncc1C(F)(F)F", "note": "(stereo partly shown) [Compound 11]", "pIC50": "> 7.52"},
      {"smiles": "CNc1nc(Nc2cn(C3(C)CCOC3=O)nc2Cl)ncc1C(F)(F)F", "note": "(single isomer, unassigned) [Compound 99]", "pIC50": "> 7.52"},
      {"smiles": "CNc1nc(Nc2cn(C3CC3)nc2[C@H]2C[C@H](n3nccn3)C2)ncc1C(F)(F)F", "note": "[Compound 198]", "pIC50": "> 7.52"},
      {"smiles": "CCNc1nc(Nc2cc([C@H]3C[C@H]3C(N)=O)nn2C2CC2)ncc1C(F)(F)F", "note": "[Compound 170]", "pIC50": "> 7.52"},
      {"smiles": "[2H]C([2H])([2H])n1cnc(C(C)(C)n2cc(Nc3ncc(Br)c(OC)n3)c(C)n2)n1", "note": "[Compound 33]", "pIC50": "> 7.52"},
      {"smiles": "CCNc1nc(Nc2cn(C3(C)CCOC3=O)nc2C)ncc1C(F)(F)F", "note": "(single isomer, unassigned) [Compound 125]", "pIC50": "> 7.52"},
      {"smiles": "CNc1nc(Nc2cn(C(C)(C)c3ccn(C)n3)nc2C)ncc1C(F)(F)F", "note": "[Compound 15]", "pIC50": "> 7.52"},
      {"smiles": "CCNc1nc(Nc2cnn3c2CC(C#N)C3)ncc1C(F)(F)F", "note": "(single isomer, unassigned) [Compound 52B]", "pIC50": "> 7.52"},
      {"smiles": "[2H]C([2H])([2H])c1nn(C(C#N)(C([2H])([2H])[2H])C([2H])([2H])[2H])cc1Nc1ncc(C(F)(F)F)c(NC2CC2)n1", "note": "[Compound 48]", "pIC50": "> 7.52"},
      {"smiles": "CNc1nc(Nc2cn(C3CC4CCC(C3)N4C)nc2C)ncc1C(F)(F)F", "note": "(stereo not shown) [Compound 2]", "pIC50": "< 7.22"},
      {"smiles": "[2H]C([2H])([2H])n1nc(C(C)(C)n2nccn2)cc1Nc1ncc(Br)c(NC2CC2)n1", "note": "[Compound 79]", "pIC50": "> 7.52"},
      {"smiles": "CCNc1nc(Nc2cn(S(C)(=O)=O)nc2C2CC2)ncc1C(F)(F)F", "note": "[Compound 112]", "pIC50": "> 7.52"},
      {"smiles": "CNc1nc(Nc2cc(C3(C)CCOC3=O)nn2C2CC2)ncc1C(F)(F)F", "note": "(stereo not shown) [Compound 156]", "pIC50": "> 7.52"},
      {"smiles": "[2H]C([2H])([2H])n1nc([C@@]23C[C@@H]2COC3=O)cc1Nc1ncc(C(F)(F)F)c(NCC)n1", "note": "[Compound 184]", "pIC50": "> 7.52"},
      {"smiles": "CCNc1nc(Nc2ccnn2[C@H]2C[C@H](n3ccnn3)C2)ncc1C(F)(F)F", "note": "[Compound 183, N2-(1-((1R,3R)-3-(1H-1,2,3-triazol-1-yl)cyclobutyl)-1H-pyrazol-5-yl)-N4-ethyl-5-(trifluoromethyl)pyrimidine-2,4-diamine]", "pIC50": "> 7.52"},
      {"smiles": "Cc1nn(C2(C)CCOC2=O)cc1Nc1ncc(C(F)(F)F)c(C2CC2)n1", "note": "(single isomer, unassigned) [Compound 120]", "pIC50": "> 7.52"},
      {"smiles": "Cc1nn(C(C)(C)C#N)cc1Nc1ncc(Cl)c(OC2CC2)n1", "note": "[Compound 60]", "pIC50": "> 7.52"},
      {"smiles": "[2H]C([2H])([2H])N1CCC(n2cc(Nc3ncc(C(F)(F)F)c(NCC)n3)c(C)n2)(C([2H])([2H])[2H])C1=O", "note": "(single isomer, unassigned) [Compound 24]", "pIC50": "> 7.52"},
      {"smiles": "CNc1nc(Nc2cn(C3CC3)nc2[C@H]2C[C@@H](n3nccn3)C2)ncc1C(F)(F)F", "note": "[Compound 199]", "pIC50": "7.22 to 7.52"},
      {"smiles": "CNc1nc(Nc2cn(CC34CC(C#N)(C3)C4)nc2C)ncc1C(F)(F)F", "note": "[Compound 6]", "pIC50": "< 7.22"},
      {"smiles": "CCNc1nc(Nc2cc(C(C)n3nccn3)nn2C2CC2)ncc1C(F)(F)F", "note": "(stereo not shown) [Compound 137]", "pIC50": "> 7.52"},
      {"smiles": "CNc1nc(Nc2cnn(C3CC4CCC(C3)N4C)c2C)ncc1C(F)(F)F", "note": "(stereo not shown) [Compound 1]", "pIC50": "> 7.52"},
      {"smiles": "CCNc1nc(Nc2cc(C(=O)N(C)C)nn2C2CC2)ncc1C(F)(F)F", "note": "[Compound 130]", "pIC50": "> 7.52"},
      {"smiles": "CCNc1nc(Nc2cn(Cc3ccon3)nc2C2CC2)ncc1C(F)(F)F", "note": "[Compound 94]", "pIC50": "> 7.52"},
      {"smiles": "CCNc1nc(Nc2cnn(C3CNCCC3(F)F)c2C)ncc1C(F)(F)F", "note": "(single isomer, unassigned) [Compound 200]", "pIC50": "> 7.52"},
      {"smiles": "Cc1nn(C(C)(C)C#N)cc1Nc1ncc(C(F)(F)F)c(NC2(C)CC2)n1", "note": "[Compound 84]", "pIC50": "> 7.52"},
      {"smiles": "CCNc1nc(Nc2cc(N3CCCS3(=O)=O)nn2C2CC2)ncc1C(F)(F)F", "note": "[Compound 154]", "pIC50": "> 7.52"},
      {"smiles": "CCNc1nc(Nc2cn(C(C)(C)C#N)nc2C)ncc1C(F)(F)F", "note": "[Compound 87]", "pIC50": "> 7.52"},
      {"smiles": "CCNc1nc(Nc2cc(-c3ncoc3C)nn2C2CC2)ncc1C(F)(F)F", "note": "[Compound 142]", "pIC50": "> 7.52"},
      {"smiles": "CCNc1nc(Nc2cn(C3CS(=O)(=O)C3)nc2C2CC2)ncc1C(F)(F)F", "note": "[Compound 110, N2-[3-cyclopropyl-1-(1,1-dioxothietan-3-yl)pyrazol-4-yl]-N4-ethyl-5-(trifluoromethyl)pyrimidine-2,4-diamine]", "pIC50": "> 7.52"},
      {"smiles": "Cn1nc(C(C)(C)n2nccn2)cc1Nc1ncc(C(F)(F)F)c(NC2CC2)n1", "note": "[Compound 69]", "pIC50": "> 7.52"},
      {"smiles": "[2H]C([2H])([2H])C([2H])([2H])n1nc(C(C)(C)n2nccn2)cc1Nc1ncc(C(F)(F)F)c(NCC)n1", "note": "[Compound 88]", "pIC50": "> 7.52"},
      {"smiles": "CCNc1nc(Nc2cn(C(C)(C)c3nncs3)nc2C)ncc1C(F)(F)F", "note": "[Compound 85]", "pIC50": "> 7.52"},
      {"smiles": "CCNc1nc(Nc2ccnn2[C@H]2C[C@@H](n3nccn3)C2)ncc1C(F)(F)F", "note": "[Compound 188]", "pIC50": "7.22 to 7.52"},
      {"smiles": "CNc1nc(Nc2cnn(C3CN(C4COC4)CCC3(F)F)c2Cl)ncc1C(F)(F)F", "note": "(single isomer, unassigned) [Compound 29]", "pIC50": "> 7.52"},
      {"smiles": "[2H]C([2H])([2H])N1CCC(n2cc(Nc3ncc(C(F)(F)F)c(NCC)n3)c(C)n2)(C([2H])([2H])[2H])C1=O", "note": "(single isomer, unassigned) [Compound 23]", "pIC50": "> 7.52"},
      {"smiles": "CCNc1nc(Nc2cc(C(C)(C)n3nccn3)nn2C(C)C)ncc1C(F)(F)F", "note": "[Compound 86]", "pIC50": "> 7.52"},
      {"smiles": "[2H]C([2H])([2H])n1nc([C@]23C[C@H]2COC3=O)cc1Nc1ncc(C(F)(F)F)c(NCC)n1", "note": "[Compound 185]", "pIC50": "> 7.52"},
      {"smiles": "N#C[C@@H]1CC1n1cc(Nc2ncc(C(F)(F)F)c(NCC(F)F)n2)c(C2CC2)n1", "note": "(single isomer, unassigned) [Compound 210]", "pIC50": "> 7.52"},
      {"smiles": "[2H]C([2H])([2H])n1nc(C2CCOCC2)cc1Nc1ncc(C(F)(F)F)c(NCC)n1", "note": "[Compound 193]", "pIC50": "7.22 to 7.52"},
      {"smiles": "CCNc1nc(Nc2cnn(C3CCCN(CC(F)F)C3)c2C)ncc1C(F)(F)F", "note": "(single isomer, unassigned) [Compound 92]", "pIC50": "> 7.52"},
      {"smiles": "CNc1nc(Nc2cc([C@]34C[C@H]3COC4=O)nn2C2CC2)ncc1C(F)(F)F", "note": "[Compound 168]", "pIC50": "> 7.52"},
      {"smiles": "CCNc1nc(Nc2cc(C3(C)CCOC3=O)nn2C2CC2)ncc1Br", "note": "(stereo not shown) [Compound 151]", "pIC50": "> 7.52"},
      {"smiles": "CCNc1nc(Nc2cc(CN3CCCC3=O)nn2C2CC2)ncc1C(F)(F)F", "note": "[Compound 149]", "pIC50": "7.22 to 7.52"},
      {"smiles": "Cc1nn(C(C)(C)C#N)cc1Nc1nc2c(c(C3CC3)n1)C1(CC1)CN2", "note": "[Compound 19]", "pIC50": "> 7.52"},
      {"smiles": "CNc1nc(Nc2cc(C3(C)CCn4ccnc43)nn2C2CC2)ncc1C(F)(F)F", "note": "(stereo not shown) [Compound 178]", "pIC50": "> 7.52"},
      {"smiles": "CCNc1nc(Nc2cn(C3(C)CCOC3=O)nc2C2CC2)ncc1Br", "note": "(single isomer, unassigned) [Compound 115]", "pIC50": "> 7.52"}
    ]}
  ]
}
